pIC50: −log10 of the molar value. Read-outs that look alike come from different tables or passages of the source.
Target: T1, endogenous CETP from serum (Homo sapiens, UniProt P11597)
T1 construct: yielding a concentration of approximately 15 nM endogenous CETP in the assay; from tissue; host or cells: human serum
T1 sequence (P11597 18-493): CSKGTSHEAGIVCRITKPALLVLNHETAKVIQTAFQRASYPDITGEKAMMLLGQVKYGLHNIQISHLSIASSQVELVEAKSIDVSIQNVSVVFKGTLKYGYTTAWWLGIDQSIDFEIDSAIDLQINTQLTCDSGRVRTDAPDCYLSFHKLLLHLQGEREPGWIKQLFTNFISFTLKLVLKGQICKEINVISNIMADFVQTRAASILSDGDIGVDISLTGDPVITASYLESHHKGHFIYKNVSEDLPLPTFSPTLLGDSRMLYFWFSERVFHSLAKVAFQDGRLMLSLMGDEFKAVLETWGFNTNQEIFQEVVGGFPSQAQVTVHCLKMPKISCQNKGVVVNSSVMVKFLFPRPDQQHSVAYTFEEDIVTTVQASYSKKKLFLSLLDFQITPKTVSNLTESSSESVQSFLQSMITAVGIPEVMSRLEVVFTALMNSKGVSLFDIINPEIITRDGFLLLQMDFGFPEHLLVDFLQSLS
Test: RTA assay in 95% human serum (in vitro radioactive assay of CETP-catalyzed CE and TG transfer, endogenous CETP)
Type: biochemical
Conditions: for pIC50: read-out: IC50 RTA (95% HS); for IC50: read-out: IC50 (nM) RTA with 95% HS
Method: In Vitro Radioactive Assays of CETP-Catalyzed CE and TG Transfer (RTA Assay)
Reagents and sources are: [3H] cholesteryl oleate (GE #TRK.886), [3H] Triolein (Perkin-Elmer NET-431), Butylated hydroxyl toluene (Aldrich, #D4740-4), DOPC (Sigma, # P6354), Sodium Bromide (Fisher scientific #S255-500), PEG 8000 (Fisher, #BP233-1), and human HDL (Intracel Corp #RP-036).
An in vitro assay for determining IC50's to identify compounds that inhibit CETP transfer activity is performed based on a modification of a published method (Morton and Zilversmit, (1981) A plasma inhibitor of triglyceride and cholesteryl ester transfer activities, J. Biol. Chem. 256(23), 11992-11995). The ability of inhibitors to alter CETP activity is performed using two different assays: one using recombinant CETP and one using an endogenous plasma source of CETP. Both assays measure the transfer of [3H] cholesteryl oleate or [3H] triolein from exogenous LDL to HDL.
Radiolabeled donor particles are generated by first combining 100 μl of 200 μM butylated hydroxyl toluene in CHCl3, 216 μL of 21.57 mM DOPC in EtOH, and either 500 μCi [3H]-triolein (Perkin Elmer #NET-431) or 500 μCi [3H]-cholesteryl oleate (GE #TRK886) in a glass tube. Reagents are mixed, dried under nitrogen, and then resuspended in 2 mL of 50 mM Tris, 27 μM EDTA at pH 7.4. After a brief vortex, the solution is sonicated until clear and mixed with 20 mL of fresh human serum. The mixture is incubated overnight at 37° C. The [3H] labeled LDL substrate is separated at 1.063 g/ml density by sequential ultracentrifugal flotation in NaBr according to the method of Havel, Eder, et al., 1955, and Chapman, Goldstein, et al., 1981. Once isolated the particles are dialyzed 3× in CETP buffer (50 mM Tris, pH 7.4, 100 mM NaCl, 1 mM EDTA). Human HDL is purchased from Intracel and used as the acceptor particles.
Transfer assays are performed in a 96-well v-bottom polypropylene plate. For the RTA using recombinant CETP (2% RTA), an assay cocktail is prepared with the final concentrations 128 μg/mL HDL, 20 nM rCETP, 2% human serum, and 1×CETP buffer. 1 μL of each test compound diluted in DMSO is added to 47 μL of assay cocktail per well and incubated at 37° C. for 1 hour. To initiate the transfer reaction, 2 μL radiolabeled LDL is added. After an additional 60 min of incubation at 37° C., the transfer action is terminated by precipitation of LDL with an equal volume of 20% WN PEG 8000. The plates are centrifuged at 2000 rpm for 30 minutes at 4° C. A 40 μL aliquot of the HDL-containing supernatant is transferred to a Packard Optiplate™ with 200 μL of MicroScint™ 20. After mixing, plates are counted by liquid scintillation. Counts present in the supernatant for blanks (wells containing only HDL acceptor, CETP buffer and DMSO) are subtracted from those containing test compounds and used to correct for non-specific transfer.
For the transfer assay using endogenous CETP from serum (95% RTA), the same procedure is used except that human serum is added such that a final concentration of serum of 95% of the total assay volume is achieved, yielding a concentration of approximately 15 nM endogenous CETP in the assay. This is then combined with HDL and CETP buffer and the reaction proceeds as above and is terminated as described.
Comparison of the counts of samples with inhibitors to an uninhibited (DMSO only) positive control yield a percent inhibition. A plot of percent inhibition vs. log of inhibitor concentration, fit to a Sigmoidal 4 parameter equation is used to calculate IC50.
Starting materials are commercially available or are made using known procedures or as shown below. The examples may be synthesized according to the general schemes provided below and by using the synthetic intermediates that are described. The data reported for the examples below were obtained using the RTA assay in 95% human serum.

| Compound | pIC50 | IC50 [nM] |
| --- | --- | --- |
| COc1cc(F)c(-c2ccc(-c3n[nH]c(=O)o3)cc2C)cc1-c1ccc(C(F)(F)F)cc1CC1=NO[C@H](c2cc(C(F)(F)F)cc(C(F)(F)F)c2)C1 [Example 2, (S)-5-(2″-((5-(3,5-bis(trifluoromethyl)phenyl)-4,5-dihydroisoxazol-3-yl)methyl)-6′-fluoro-4′-methoxy-2-methyl-4″-(trifluoromethyl)-[1,1′:3′,1″-terphenyl]-4-yl)-1,3,4-oxadiazol-2(3H)-one] | 6.78 |  |
| COc1ccc(-c2ccc(C(=O)O)cc2C)cc1-c1ccc(C(F)(F)F)cc1CC1=NO[C@@H](c2cc(C(F)(F)F)cc(C(F)(F)F)c2)[C@H]1C [Example 3A, 2″-(((4S,5R)-5-(3,5-bis(trifluoromethyl)phenyl)-4-methyl-4,5-dihydroisoxazol-3-yl)methyl)-4′-methoxy-2-methyl-4″-(trifluoromethyl)-[1,1′:3′,1″-terphenyl]-4-carboxylic acid] | < 5.00 |  |
| COc1ncc(-c2c(C)cc(C(=O)O)cc2C)cc1-c1ccc(C(F)(F)F)cc1CC1=NO[C@H](c2cc(C(F)(F)F)cc(C(F)(F)F)c2)[C@@H]1C [Example 13, 4-(5-(2-(((4R,5S)-5-(3,5-bis(trifluoromethyl)phenyl)-4-methyl-4,5-dihydroisoxazol-3-yl)methyl)-4-(trifluoromethyl)phenyl)-6-methoxypyridin-3-yl)-3,5-dimethylbenzoic acid] |  | 343 |
| COc1ncc(-c2ccc(C(=O)O)cc2C)cc1-c1ccc(C(F)(F)F)cc1CC1=NO[C@H](c2cc(C(F)(F)F)cc(C(F)(F)F)c2)C1 [Example 6, 4-{5-[2-({(5S)-5-[3,5-bis(trifluoromethyl)phenyl]-4,5-dihydroisoxazol-3-yl}methyl)-4-(trifluoromethyl)phenyl]-6-methoxypyridin-3-yl}-3-methylbenzoic acid] |  | 537 |
| COc1ccc(CCC(=O)O)cc1-c1ccc(C(F)(F)F)cc1CC1=NO[C@H](c2cc(C(F)(F)F)cc(C(F)(F)F)c2)C1 [Example 5, 3-[2′-({(5S)-5-[3,5-bis(trifluoromethyl)phenyl]-4,5-dihydroisoxazol-3-yl}methyl)-6-methoxy-4′-(trifluoromethyl)biphenyl-3-yl]propanoic acid] |  | 1500 |
| COc1ncc(-c2ccc(C(=O)O)cc2C)cc1-c1ccc(C(F)(F)F)nc1CC1=NO[C@H](c2cc(C(F)(F)F)cc(C(F)(F)F)c2)C1 [Example 10, (S)-4-[2′-({5-[3,5-bis(trifluoromethyl)phenyl]-4,5-dihydroisoxazol-3-yl}methyl)-2-methoxy-6′-(trifluoromethyl)-3,3′-bipyridin-5-yl]-3-methylbenzoic acid] |  | 400 |
| COc1cc(F)c(-c2ccc(C(=O)O)cc2C)cc1-c1ccc(C(F)(F)F)cc1CC1=NO[C@@H](c2cc(C(F)(F)F)cc(C(F)(F)F)c2)C1 [Example 1B, (R)-2″-((5-(3,5-bis(trifluoromethyl)phenyl)-4,5-dihydroisoxazol-3-yl)methyl)-6′-fluoro-4′-methoxy-2-methyl-4″-(trifluoromethyl)-[1,1′:3′,1″-terphenyl]-4-carboxylic acid] | 5.80 |  |
| COc1ncc(-c2ccc(C(=O)O)cc2C)cc1-c1ccc(C(F)(F)F)cc1CC1=NO[C@H](c2ccnc(C(F)(F)F)c2)C1 [Example 9, (S)-4-{6-methoxy-5-[4-(trifluoromethyl)-2-({5-[2-(trifluoromethyl)pyridin-4-yl]-4,5-dihydroisoxazol-3-yl}methyl)phenyl]pyridin-3-yl}-3-methylbenzoic acid] |  | 6500 |
| COc1ccc(-c2ccc(C(=O)O)cc2C)cc1-c1cnc(C(F)(F)F)cc1CC1=NO[C@H](c2cc(C(F)(F)F)cc(C(F)(F)F)c2)C1 [Example 8, (S)-3′-[4-({5-[3,5-bis(trifluoromethyl)phenyl]-4,5-dihydroisoxazol-3-yl}methyl)-6-(trifluoromethyl)pyridin-3-yl]-4′-methoxy-2-methylbiphenyl-4-carboxylic acid] |  | 1070 |
| COc1ccc(-c2ccc(C(=O)O)cc2C)cc1-c1ccc(C(F)(F)F)cc1CC1=NO[C@H](c2cc(C(F)(F)F)cc(C(F)(F)F)c2)[C@@H]1C [Example 3B, 2″-(((4R,5S)-5-(3,5-bis(trifluoromethyl)phenyl)-4-methyl-4,5-dihydroisoxazol-3-yl)methyl)-4′-methoxy-2-methyl-4″-(trifluoromethyl)-[1,1′:3′,1″-terphenyl]-4-carboxylic acid] | 6.53 |  |
| COc1cc(F)c(-c2ccc(C(=O)O)cc2C)cc1-c1ccc(C(F)(F)F)cc1CC1=NO[C@H](c2cc(C(F)(F)F)cc(C(F)(F)F)c2)C1 [Example 1A, (S)-2″-((5-(3,5-bis(trifluoromethyl)phenyl)-4,5-dihydroisoxazol-3-yl)methyl)-6′-fluoro-4′-methoxy-2-methyl-4″-(trifluoromethyl)-[1,1′:3′,1″-terphenyl]-4-carboxylic acid] | 7.43 |  |
| COc1ncc(-c2ccc(C(=O)O)cc2C)cc1-c1ccc(C(F)(F)F)cc1CC1=NO[C@H](c2cc(C(F)(F)F)cc(C(F)(F)F)c2)[C@@H]1C [Example 14, 4-(5-(2-(((4R,5S)-5-(3,5-bis(trifluoromethyl)phenyl)-4-methyl-4,5-dihydroisoxazol-3-yl)methyl)-4-(trifluoromethyl)phenyl)-6-methoxypyridin-3-yl)-3-methylbenzoic acid] |  | 169 |
| COc1cc(F)c(C(C)C)cc1-c1ccc(C(F)(F)F)cc1CC1=NO[C@H](c2cc(C(F)(F)F)cc(C(F)(F)F)c2)C1 [Example 4, (5S)-5-[3,5-bis(trifluoromethyl)phenyl]-3-{[4′-fluoro-2′-methoxy-5′-(1-methylethyl)-4-(trifluoromethyl)biphenyl-2-yl]methyl}-4,5-dihydroisoxazole] |  | 1290 |
| COc1ccc(-c2cc(-c3ccc(C(=O)O)cc3C)cnc2OC)c(CC2=NO[C@H](c3cc(C(F)(F)F)cc(C(F)(F)F)c3)C2)n1 [Example 12, (S)-4-[2′-({5-[3,5-bis(trifluoromethyl)phenyl]-4,5-dihydroisoxazol-3-yl}methyl)-2,6′-dimethoxy-3,3′-bipyridin-5-yl]-3-methylbenzoic acid] |  | 880 |
| COc1ccc(-c2cc(-c3ccc(C(=O)O)cc3C)ccc2OC)c(CC2=NO[C@H](c3cc(C(F)(F)F)cc(C(F)(F)F)c3)C2)n1 [Example 11, (S)-3′-[2-({5-[3,5-bis(trifluoromethyl)phenyl]-4,5-dihydroisoxazol-3-yl}methyl)-6-methoxypyridin-3-yl]-4′-methoxy-2-methylbiphenyl-4-carboxylic acid] |  | 176 |

Source: patent US10011572B2, “Monocyclic isoxazolines as inhibitors of cholesterol ester transfer protein” (Merck Sharp & Dohme Corp., priority 2014, dated 2018)
